Results reported in ChEMBL document CHEMBL1131945, “Nonpeptide small-molecular inhibitors of dipeptidyl peptidase IV: N-phenylphthalimide analogs” (Bioorg Med Chem Lett, 1999).
Where “and” joins values, the source holds several entries; their conditions need not be identical. Equal entries are not always repeated.

What was measured:
[1] = Cytotoxicity in human embryonic lung flbroblast Wl-38 cells using WST-1 viability assay
[2] = target: Aminopeptidase N (Homo sapiens, UniProt P15144); experiment: Inhibitory activity against aminopeptidase N (APN) in human acute lymphoblastic leukemia MOLT-4 cell line; format: cell-based
[3] = target: Dipeptidyl peptidase 4 (Homo sapiens, UniProt P27487); experiment: Inhibitory activity against Dipeptidylpeptidase IV (DPP IV) in human acute lymphoblastic leukemia MOLT-4 cell line; format: cell-based
Sequence of Dipeptidyl peptidase 4 (P27487 whole entry): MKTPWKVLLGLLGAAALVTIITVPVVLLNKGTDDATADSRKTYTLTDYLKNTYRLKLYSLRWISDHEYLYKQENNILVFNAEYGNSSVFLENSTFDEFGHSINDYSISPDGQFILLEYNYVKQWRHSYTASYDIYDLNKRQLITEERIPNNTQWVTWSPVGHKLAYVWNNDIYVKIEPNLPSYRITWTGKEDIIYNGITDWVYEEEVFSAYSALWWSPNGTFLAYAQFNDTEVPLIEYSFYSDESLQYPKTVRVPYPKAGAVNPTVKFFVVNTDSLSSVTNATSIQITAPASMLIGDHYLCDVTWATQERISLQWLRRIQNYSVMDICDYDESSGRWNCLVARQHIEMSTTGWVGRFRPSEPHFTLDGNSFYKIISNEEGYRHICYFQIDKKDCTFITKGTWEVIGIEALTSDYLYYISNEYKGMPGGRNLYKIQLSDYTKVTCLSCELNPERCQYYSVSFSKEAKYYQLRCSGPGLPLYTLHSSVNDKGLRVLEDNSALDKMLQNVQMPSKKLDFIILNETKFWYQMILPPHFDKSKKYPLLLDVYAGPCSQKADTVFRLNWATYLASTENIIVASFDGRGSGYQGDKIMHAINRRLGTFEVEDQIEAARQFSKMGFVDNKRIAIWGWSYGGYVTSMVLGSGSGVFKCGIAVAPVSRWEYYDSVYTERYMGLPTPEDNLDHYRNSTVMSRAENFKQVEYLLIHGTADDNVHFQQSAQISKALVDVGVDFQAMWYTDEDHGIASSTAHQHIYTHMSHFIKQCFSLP

Sequence of Aminopeptidase N (P15144 whole entry): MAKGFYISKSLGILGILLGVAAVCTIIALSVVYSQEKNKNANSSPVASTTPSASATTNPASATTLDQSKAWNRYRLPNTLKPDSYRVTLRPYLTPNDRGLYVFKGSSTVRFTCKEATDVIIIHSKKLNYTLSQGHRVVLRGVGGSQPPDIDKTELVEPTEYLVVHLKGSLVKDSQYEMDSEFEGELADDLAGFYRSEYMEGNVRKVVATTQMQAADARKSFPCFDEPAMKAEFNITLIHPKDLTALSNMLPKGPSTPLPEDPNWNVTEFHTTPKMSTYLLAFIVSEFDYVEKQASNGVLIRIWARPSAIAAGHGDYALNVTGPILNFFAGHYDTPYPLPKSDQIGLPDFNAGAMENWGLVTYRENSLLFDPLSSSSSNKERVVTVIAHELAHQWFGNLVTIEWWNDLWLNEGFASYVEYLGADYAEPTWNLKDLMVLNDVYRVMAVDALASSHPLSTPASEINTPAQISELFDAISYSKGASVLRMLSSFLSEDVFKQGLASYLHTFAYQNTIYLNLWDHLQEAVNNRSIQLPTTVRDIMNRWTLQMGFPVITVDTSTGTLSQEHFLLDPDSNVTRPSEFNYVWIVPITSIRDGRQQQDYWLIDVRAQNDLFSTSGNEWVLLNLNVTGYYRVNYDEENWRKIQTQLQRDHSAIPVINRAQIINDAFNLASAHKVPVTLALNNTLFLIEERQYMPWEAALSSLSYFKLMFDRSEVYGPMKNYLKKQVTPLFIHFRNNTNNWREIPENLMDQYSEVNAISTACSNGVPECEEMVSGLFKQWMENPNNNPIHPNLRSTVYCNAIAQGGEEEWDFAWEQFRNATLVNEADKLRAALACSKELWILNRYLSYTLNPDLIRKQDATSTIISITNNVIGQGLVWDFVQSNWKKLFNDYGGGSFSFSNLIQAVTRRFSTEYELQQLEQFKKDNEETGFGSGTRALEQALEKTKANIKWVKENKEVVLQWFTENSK

Row | Structure (SMILES) | IC50 [2] | IC50 [3] | IC50 [1]
1 | Cc1cccc(C)c1N1C(=O)c2ccc([N+](=O)[O-])cc2C1=O | > 338 µM | > 338 µM | > 100 µg/mL
2 | Cc1cccc(C)c1N1C(=O)c2cccc([N+](=O)[O-])c2C1=O | > 338 µM | > 338 µM | > 100 µg/mL
3 | CCc1cccc(CC)c1N1C(=O)c2cccc(O)c2C1=O | – | 43.3 µM | > 100 µg/mL and > 339 µM
4 | CSc1ccccc1N1C(=O)c2cccc([N+](=O)[O-])c2C1=O | > 318 µM | > 318 µM | > 100 µg/mL
5 | Cc1cccc(C)c1N1C(=O)c2ccc(N)cc2C1=O | – | – | > 100 µg/mL and > 376 µM
6 | CC(C)c1cccc(C(C)C)c1N1C(=O)c2ccc(O)cc2C1=O | – | – | 12.7 µg/mL and 39.3 µM
7 | CSc1ccccc1N1C(=O)c2cccc(O)c2C1=O | 134 µM | 226 µM | > 100 µg/mL and > 350 µM
8 | Cc1cccc(C)c1N1C(=O)c2ccc(O)cc2C1=O | – | – | > 100 µg/mL and > 374 µM
9 | CC(C)c1cccc(C(C)C)c1N1C(=O)c2cccc(O)c2C1=O | – | – | > 100 µg/mL and > 309 µM
10 | CCc1cccc(CC)c1N1C(=O)c2ccc(O)cc2C1=O | – | – | 52 µg/mL and 176 µM
11 | Cc1cccc(C)c1N1C(=O)c2ccccc2C1=O | – | > 398 µM | > 100 µg/mL
12 | CC(C)c1cccc(C(C)C)c1N1C(=O)c2ccc(N)cc2C1=O | – | – | > 100 µg/mL and > 310 µM

Second part, led by results:

Row | IC50 [2] | IC50 [3] | Structure (SMILES) | IC50 [1]
13 | – | 30.3 µM and 30.4 µM | CC(C)c1cccc(C(C)C)c1N1C(=O)c2c(F)c(F)c(F)c(F)c2C1=S | > 100 µg/mL and > 253 µM
14 | – | 36.7 µM | CC(C)c1cccc(C(C)C)c1N1C(=S)c2c(F)c(F)c(F)c(F)c2C1=S | 1.4 µg/mL and 3.4 µM
15 | – | > 374 µM | Cc1cccc(C)c1N1C(=O)c2cccc(O)c2C1=O | > 100 µg/mL
16 | 109 µM | 60.1 µM | Cc1cccc(C)c1N1C(=O)c2cccc(N)c2C1=O | > 100 µg/mL and > 376 µM
17 | > 309 µM and 309 µM | 57.8 µM | CC(C)c1cccc(C(C)C)c1N1C(=O)c2ccccc2C1=S | 60.5 µg/mL and 187 µM
18 | – | > 325 µM | CC(C)c1cccc(C(C)C)c1N1C(=O)c2ccccc2C1=O | > 100 µg/mL
19 | – | > 284 µM | CC(C)c1cccc(C(C)C)c1N1C(=O)c2cccc([N+](=O)[O-])c2C1=O | 93.1 µg/mL and 264 µM
20 | – | > 284 µM | CC(C)c1cccc(C(C)C)c1N1C(=O)c2ccc([N+](=O)[O-])cc2C1=O | 42.7 µg/mL and 121 µM
